The results in this text go back to publication PMC8216281, “RNA pull-down confocal nanoscanning (RP-CONA) detects quercetin as pri-miR-7/HuR interaction inhibitor that decreases α-synuclein levels” (Nucleic Acids Research, 2021).

Assay [1] deals with T1, HuR (Homo sapiens, UniProt Q15717).
T1 construct: gene ELAVL1; mCherry-HuR (HuR open reading frame), overexpressed in HuR KO HEK293T lysate
Put plainly: RP-CONA on-bead confocal assay: inhibition of mCherry-HuR binding to pri-miR-7-1-CTL RNA in cell lysate; confirmed by RNA pull-down/western blot. In kind it is biochemical.

The target of assay [2] is T1, HuR. Put plainly: RP-CONA on-bead confocal assay: inhibition of mCherry-HuR binding to pri-miR-7-1-CTL RNA in cell lysate; confirmed by RNA pull-down/western blot and RIP in cells. In kind it is biochemical.

T1 sequence (Q15717 2-326): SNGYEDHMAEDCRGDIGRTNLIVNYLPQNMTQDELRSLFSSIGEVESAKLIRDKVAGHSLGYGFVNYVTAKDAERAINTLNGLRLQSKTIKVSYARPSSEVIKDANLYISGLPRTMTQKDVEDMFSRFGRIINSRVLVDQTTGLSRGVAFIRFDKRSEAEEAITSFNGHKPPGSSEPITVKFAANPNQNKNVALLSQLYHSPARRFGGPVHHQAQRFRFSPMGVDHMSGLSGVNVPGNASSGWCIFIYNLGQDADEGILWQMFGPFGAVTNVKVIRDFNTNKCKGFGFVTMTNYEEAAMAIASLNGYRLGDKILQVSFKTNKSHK

Usually IC50 stands for the concentration that inhibits the measured activity by half. Higher therefore signals lower potency. In turn, `O=c1cc(-c2ccc(O)c(O)c2)oc2cc(O)cc(O)c12` [luteolin] had an IC50 at HuR [1] of 2030 ± 250 nM.
In the case of `O=c1c(O)c(-c2ccc(O)c(O)c2)oc2cc(O)cc(O)c12` [quercetin], the IC50 at HuR [2] was found to be 2150 ± 160 nM.
